Measurements taken from ChEMBL document CHEMBL1159362, “New cytotoxic indole alkaloids from Tabernaemontana calcarea from the Madagascar rainforest” (J Nat Prod, 2003).
In brackets after ≈: the same amount, converted by molar mass.

Test system: A2780
Assay: Cytotoxicity against human A2780 cells
Type: functional, cell-based

Compound | IC50
COC(=O)[C@@]12C[C@@H]3C[C@H]([C@@H](C)O)[C@@H]1N(CC[C@]1(O)C2=Nc2ccc(OC)cc21)C3 | 10.8 µg/mL (≈ 27 µM)
CC[C@H]1C[C@H]2CC3c4[nH]c5cc(OC)ccc5c4CCN(C2)[C@H]31 | 4.9 µg/mL (≈ 15.8 µM)
COC(=O)[C@@]12C[C@@H]3C[C@H]([C@@H](C)O)[C@@H]1N(CCc1c2[nH]c2ccc(OC)cc12)C3=O | 6.8 µg/mL (≈ 17.1 µM)
C[C@@H](O)[C@@H]1C[C@H]2C[C@H]3c4[nH]c5ccccc5c4CCN(C2)[C@@H]13 | 8.9 µg/mL (≈ 30 µM)
CC[C@H]1C[C@@H]2CN3CCc4c([nH]c5cc(O)ccc45)[C@](C(=O)OC)(C2)[C@H]13 | 4.8 µg/mL (≈ 13.5 µM)
CC[C@H]1C[C@H]2C[C@H]3c4[nH]c5cc(OC)ccc5c4CCN(C2O)[C@@H]13 (mixture of isomers) | 7.9 µg/mL
COC(=O)[C@@]12C[C@@H]3C[C@H]([C@@H](C)O)[C@@H]1N(CCc1c2[nH]c2ccc(OC)cc12)C3 [19(R)-HEYNEANINE] | 4 µg/mL (≈ 10.4 µM)
CC[C@H]1C[C@@H]2CN3CCc4c([nH]c5ccccc45)[C@](C(=O)OC)(C2)[C@H]13 [CORONARIDINE] | 9.9 µg/mL (≈ 29.3 µM)
C[C@H](O)[C@@H]1C[C@H]2C[C@H]3c4[nH]c5ccccc5c4CCN(C2)[C@@H]13 [HEYNEANINE] | 10.7 µg/mL (≈ 36.1 µM)
CC[C@H]1C[C@H]2C[C@H]3c4[nH]c5ccc(OC)cc5c4CCN(C2)[C@@H]13 [IBOGAINE] | 10.2 µg/mL (≈ 32.9 µM)
CC[C@H]1C[C@H]2C[C@H]3c4[nH]c5ccccc5c4CCN(C2)[C@@H]13 [IBOGAMINE] | 3.5 µg/mL (≈ 12.5 µM)
CC[C@H]1C[C@@H]2CN3CCc4c([nH]c5cc(OC)ccc45)[C@](C(=O)OC)(C2)[C@H]13 [ISOVOACANGINE] | 9.4 µg/mL (≈ 25.5 µM)
COC(=O)[C@@]12C[C@@H]3C[C@H]([C@H](C)O)[C@@H]1N(CCc1c2[nH]c2cc(OC)ccc12)C3 [ISOVOACRISTINE] | 9.6 µg/mL (≈ 25 µM)
CC[C@H]1C[C@@H]2CN3CCc4c([nH]c5ccc(OC)cc45)[C@](C(=O)OC)(C2)[C@H]13 [VOACANGINE] | 10.4 µg/mL (≈ 28.2 µM)
COC(=O)[C@@]12C[C@@H]3C[C@H]([C@H](C)O)[C@@H]1N(CCc1c2[nH]c2ccc(OC)cc12)C3 [VOACRISTINE] | 11 µg/mL (≈ 28.6 µM)
